These results are taken from PMC3024946, “Hydroxyproline-containing collagen analogs trigger the release and activation of collagen-sequestered proMMP-2 by competition with prodomain-derived peptide P33-42” (Fibrogenesis & Tissue Repair, 2011).

In data set [1] the test system is ProMMP-2. Description: Fluorogenic short-substrate assay, activation of proMMP-2. It counts as biochemical, human. The following applies: proMMP-2; CI-coated wells. As for the experimental part: (§1) Enzymatic activities of MMPs were studied spectrofluorimetrically by cleavage of fluorogenic substrates in MMP activity buffer within 2 to 5 h. For gelatinases 800 nM MCA-Pro-Leu-Gly-Leu-Dnp-Dap-Ala-Arg-NH2 (λex/em 328/393 nm; Bachem, Bubendorf, Switzerland) or 10 μg/ml DQ-gelatine were used, according to the method described by Knight et al. for collagenases 800 nM MCA-Pro-Cha-Gly-Nva-His-Ala-Dpa-NH2 (λex/em 280/360 nm; Anaspec, San José, CA, USA). In some experiments, proMMP-2 was fully activated in the presence of 1 mM APMA prior to the kinetic measurements. A quantity of 50 ng pro- or actMMP-2 alone or mixed with 10- to 150-fold molar excesses of (GPO)10, GAP, P33-42 or mixtures of (GPO)10 and P33-42, were added to CI-coated, BSA-coated (1 μg/well both) or uncoated wells containing 150 μl of the respective substrate solution. The peptide P33-42 was purchased from the Institute of Biochemistry (Humboldt-University, Berlin, Germany). The influence of CI on MMP-2 enzymatic activity against the quenched fluorescent substrate could be excluded. Background subtraction (measurement without MMPs) was applied to all curves. All experiments were performed with a fluorescence microplate reader (Molecular Devices, Sunnyvale, CA, USA) and black 96-well microtiter plates with a clear bottom (Greiner bio-one, Frickenhausen, Germany).

The conditions of data set [2]: soluble human placenta-isolated triple-helical portion of CI; ref [30]; cited from earlier work. From the text: We tested α1(I) chains, which rapidly refold into triple-helical conformation in neutral buffers at room temperature, as well as CB-peptides of the α1(I) chain, where the length of the triple helix affects their thermal stability. Here the strength of binding of proMMP-2 and proMMP-9 to CB peptides directly correlated to the thermal stability of its tri ... || Native human CI, CIII and CVI were purified from skin tissue and placenta. The CI single chains α1(I) and α2(I) were obtained and modified as described previously. To prepare defined fragments, 2 mg of α1(I) were dissolved in 1 ml of 70% (vol/vol) formic acid at room temperature, the tubes were flushed with nitrogen for 10 min, and then 2 mg of CB were added. After incubation for 4 h at 37°C, free CB was neutralized and the samples were lyophilized. The peptides CB3, CB6, CB7 and CB8 were separated from the reaction mixture by gel filtration followed by ion-exchange chromatography. The ...

Data set [3] relates to ActMMP-2. Description: Fluorogenic short-substrate assay, activity of actMMP-2. It counts as biochemical, human. The following applies: CI-coated wells. As for the experimental part: as §1
For data set [4], the system named is ActMMP-9. The experiment in a line: Solid-phase binding of [125I]-actMMP-9 to immobilized collagens/peptides (microwells). Set-up: species or system human. The following applies: ActMMP-9, 2 ng/well; coated wells; 4°C, 2 h; residual radioactivity; mean ± SD, at least five experiments in triplicate. As for the experimental part: (§2) Human recombinant proMMPs and in vitro activated MMPs were obtained from Invitek and were labeled with the [^125I]-Bolton-Hunter reagent according to the manufacturer's instructions (PerkinElmer, Rodgau, Germany) before the buffer was exchanged for phosphate-buffered saline (PBS) with 0.05% (vol/vol) Tween 20 by gel filtration as described previously. Specific radioactivity for [^125I]-MMPs was 3-9 × 10^4 cpm/ng. Precipitation with 10% (wt/vol) trichloroacetic acid and 200 μg of BSA recovered 96% to 100% of protein-bound radioactivity. Aliquots of labeled MMPs were frozen and stored at -80°C. The activity and integrity were checked by substrate gel zymography using SDS-PAGE and autoradiography with overnight exposure to Biomax MS film (Kodak, Stuttgart, Germany) (Figure 2A).
(§3) Native human CI, CIII and CVI were purified from skin tissue and placenta. The CI single chains α1(I) and α2(I) were obtained and modified as described previously. To prepare defined fragments, 2 mg of α1(I) were dissolved in 1 ml of 70% (vol/vol) formic acid at room temperature, the tubes were flushed with nitrogen for 10 min, and then 2 mg of CB were added. After incubation for 4 h at 37°C, free CB was neutralized and the samples were lyophilized. The peptides CB3, CB6, CB7 and CB8 were separated from the reaction mixture by gel filtration followed by ion-exchange chromatography. The resulting peptides were characterized by amino acid analysis and SDS-PAGE [45, 46]. The CB peptides had the following melting temperatures: CB3, 23.9°C; CB6, 26.7°C; CB7, 28.1°C; and CB8, 28.0°C [31].
(§4) The following collagen analogs and control peptides were synthesized as described previously: (GPO)10, H-Gly-Cys-Hyp-(Gly-Pro-Hyp)10-Gly-Cys-Hyp-Gly-NH2; (GPP)10, H-Gly-Cys-Pro-(Gly-Pro-Pro)10-Gly-Cys-Pro-Gly-NH2; and GAP, H-Gly-Ala-Cys-(Gly-Ala-Pro)5-Gly-Phe-Hyp-Gly-Glu-Arg-(Gly-Ala-Pro)5-NH2. Peptides (POG)10, (PPG)10 and (POG)5 were purchased from Peptide International (Louisville, KY, USA). Spontaneous triple-helix assembly was approved by polarimetry over a 10-cm path length at 1°C/min in 10 mM phosphate buffer, pH 7.4. At 5 mg/ml, midpoints of melting curves occurred at 82.3 ± 1.4°C for (GPO)10 and at 45.8 ± 0.8°C for (GPP)10. […] Graphs were calculated from the primary data using a custom fitting program written by D.A. Slatter (Department of Biochemistry, University of Cambridge, Cambridge, UK [48]) to model different possible transitions. All collagens, CI derivatives and peptides were stored in stock solutions of 2 mg/ml in 150 mM acetic acid at -20°C.
(§5) ProMMP-2 and proMMP-9 or actMMP-2 and actMMP-9 were bound to nitrocellulose and polystyrene-immobilized native collagens, CI chains, CB peptides or structural analogs. Serial dilutions of collagens or CI derivatives in 150 mM acetic acid were dotted at 3 × 3 μl to a nitrocellulose membrane with high protein-binding capacity (GE Healthcare, Munich, Germany). Air-dried membranes were blocked with PBS and 0.3% (vol/vol) Tween 20 overnight at 4°C, washed three times, and incubated with 1 ng/ml [^125I]-pro- and actMMP-2 and pro- and actMMP-9 in PBS and 0.3% (vol/vol) Tween 20 for 2 h at room temperature. Membranes were washed again and air-dried, and bound MMP was monitored by autoradiography. In parallel, polystyrene microtiter plates (Dynex, Chantilly, VA, USA) were coated with collagen proteins and peptides. Here 2 μg/well or 200 ng/well proteins and peptides or BSA as control were immobilized in 100 μl of 50 mM ammonium bicarbonate buffer, pH 9.6, by overnight incubation at 4°C. Immobilization efficacies were 20% to 45% of total proteins. Wells were washed three times with PBS, and nonspecific binding sites were blocked with PBS and 0.05% (vol/vol) Tween 20 for 1 h at room temperature. All incubation steps were performed with 2 ng of [^125I]-MMPs at 4°C for 2 h. […]

The test system of data set [5] is ProMMP-2. Description: Solid-phase binding of [125I]-proMMP-2 to immobilized collagens/peptides (microwells). Set-up: species or system human. The following applies: ProMMP-2, 2 ng/well; coated wells; 4°C, 2 h; residual radioactivity; mean ± SD, at least five experiments in triplicate. As for the experimental part:
as §2, §3, §4, §5

Data set [6] has as its system ActMMP-2. Description: Solid-phase binding of [125I]-actMMP-2 to immobilized collagens/peptides (microwells). Set-up: species or system human. The following applies: ActMMP-2, 2 ng/well; coated wells; 4°C, 2 h; residual radioactivity; mean ± SD, at least five experiments in triplicate. As to the method: as §2, §3, §4, §5
Data set [7] relates to ProMMP-9. Description: Solid-phase binding of [125I]-proMMP-9 to immobilized collagens/peptides (microwells). Also on record: species or system human. The following applies: ProMMP-9, 2 ng/well; coated wells; 4°C, 2 h; residual radioactivity; mean ± SD, at least five experiments in triplicate. As for the experimental part: as §2, §3, §4, §5

Take “CI: native human collagen type I purified from skin tissue and placenta”: the “effect of CI coating on activity” value in data set [1] and in data set [3] was “strong reduction in activity” throughout. In addition, in data set [2], the melting temperature is 33.8 °C. The “Binding of [125I]-MMPs” value is 3.1 ± 0.5 % of maximum control in data set [4], 24.0 ± 5.6 % of maximum control in data set [5], 11.1 ± 1.8 % of maximum control in data set [6] and 30.9 ± 3.1 % of maximum control in data set [7].
